Holding throughout (assay): relative viability (nuclei count vs DMSO), 5 days (fraction); higher = more cells survive
Compound in experiment [1]: C1COCCN1C2=NC(=NC3=C2OC4=C3C=CC=N4)C5=CC(=CC=C5)NC(=O)C6=CN=C(C=C6)N + CC1(C)CCC(c2ccc(Cl)cc2)=C(CN2CCN(c3ccc(C(=O)NS(=O)(=O)c4ccc(N[C@H](CCN5CCOCC5)CSc5ccccc5)c(S(=O)(=O)C(F)(F)F)c4)cc3)CC2)C1 [Navitoclax] (partner 0.5 µM)
Put shortly:
(§1)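 Relative viability divides the nuclei count in treated wells by that in vehicle wells. Lung cancer cell lines were seeded in 1536-well plates, dosed by pin tool the next day, and fixed and stained after 5 days in one step with final 0.05% Triton X-100, 1% formaldehyde and 1 ug/ml Hoechst. Dosing was a single drug or a fixed anchor-drug dose plus five library-drug doses (not always all listed) in √10 steps, and values are medians of duplicate plates imaged at 4×.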

Compound in the experiment “SGI-1776 + Alpelisib”: CN1CCC(CNc2ccc3ncc(-c4cccc(OC(F)(F)F)c4)n3n2)CC1 [SGI-1776] + Cc1nc(NC(=O)N2CCC[C@H]2C(N)=O)sc1-c1ccnc(C(C)(C)C(F)(F)F)c1 [Alpelisib] (partner 2 µM)
Put shortly: as §1

Compound in the experiment “SGI-1776 + Pemetrexed”: CN1CCC(CNc2ccc3ncc(-c4cccc(OC(F)(F)F)c4)n3n2)CC1 [SGI-1776] + Nc1nc2[nH]cc(CCc3ccc(C(=O)N[C@@H](CCC(=O)O)C(=O)O)cc3)c2c(=O)[nH]1 [Pemetrexed] (partner 0.2 µM)
In short, it runs like this:
as §1

Compound in the experiment “Entinostat + Tozasertib”: Nc1ccccc1NC(=O)c1ccc(CNC(=O)OCc2cccnc2)cc1 [Entinostat] + Cc1cc(Nc2cc(N3CCN(C)CC3)nc(Sc3ccc(NC(=O)C4CC4)cc3)n2)n[nH]1 [Tozasertib] (partner 0.1 µM)
In short, it runs like this: as §1

As for UMC-11, the relative viability in experiment [1] (first compound 0.02 µM) is 0.278; in experiment [1] (first compound 0.06325 µM), 0.292; in experiment [1] (first compound 0.2 µM), 0.266; in experiment [1] (first compound 0.6325 µM), 0.284; in experiment [1] (first compound 2 µM), 0.246; with SGI-1776 + Alpelisib (first compound 0.08 µM), 0.888. In addition, the relative viability with SGI-1776 + Alpelisib (first compound 0.8 µM) amounted to 1; in the experiment with SGI-1776 + Alpelisib (first compound 2.53 µM), 0.828; with SGI-1776 + Alpelisib (first compound 8 µM), 0.671; in the experiment with SGI-1776 + Pemetrexed (first compound 0.08 µM), 0.828; with SGI-1776 + Pemetrexed (first compound 0.8 µM) it was 0.864; with SGI-1776 + Pemetrexed (first compound 2.53 µM), 0.699. The relative viability with SGI-1776 + Pemetrexed (first compound 8 µM) is 0.558; with Entinostat + Tozasertib (first compound 0.02 µM) it was 0.218; with Entinostat + Tozasertib (first compound 0.06325 µM), 0.201; with Entinostat + Tozasertib (first compound 0.2 µM), 0.206; in the experiment with Entinostat + Tozasertib (first compound 0.6325 µM), 0.192; with Entinostat + Tozasertib (first compound 2 µM) it was 0.163.

These data come from the supplement of paper PMC10307832.
